Literature values as cited in PMC9494641 (ACS Omega, 2022).
pIC50, pKd: −log10 of the molar value. Blank lines part the entries; values can stand above or below the compound they belong to.

Tests used:
[1] = test system: JAK2 expressing SET-2 cell line
JAK2 = JAK2 (Homo sapiens, UniProt O60674); details: read-out: Kd JAK2
JAK1 = details: read-out: IC50 JAK1

JAK2, sequence (O60674 808-1132 limits assumed): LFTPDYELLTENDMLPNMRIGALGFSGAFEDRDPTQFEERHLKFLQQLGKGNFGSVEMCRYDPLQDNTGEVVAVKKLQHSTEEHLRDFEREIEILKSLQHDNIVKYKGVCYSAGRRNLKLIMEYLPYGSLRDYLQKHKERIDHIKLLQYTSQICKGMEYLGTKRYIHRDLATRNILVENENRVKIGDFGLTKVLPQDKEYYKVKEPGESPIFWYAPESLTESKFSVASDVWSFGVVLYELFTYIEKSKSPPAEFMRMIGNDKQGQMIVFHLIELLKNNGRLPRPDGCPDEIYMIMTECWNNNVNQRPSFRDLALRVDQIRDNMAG

- pIC50 [1]: > 8.52
Structure (SMILES): Cc1cc(Nc2nc(N[C@@H](C)c3ccc(F)cc3)c(C#N)cc2F)[nH]n1 [AZ960]

- pKd (JAK2): 5.18
Structure (SMILES): CCN(CC)CCC(CNc1ccnc2cc(Cl)ccc12)c1ccc(O)cc1 (stereo not drawn) [NSC13626]
